What follows are compounds tested against PI3K-alpha (Homo sapiens (Human), UniProt P42336) (assay: HTRF PI3K biochemical assay, alpha isoform). Conditions: ratio PI3K-alpha IC50 value/PI3K-delta IC50 value.
Text: HTRF PI3K Biochemical Assay to Measure Intrinsic Potency of Compound Inhibitors
The PI3-Kinase biochemical assays were developed to measure the intrinsic potency and compound dependent inhibition of the alpha, beta, delta, and gamma PI3K isoform enzymes. This assay was developed and further optimized from a kit produced by Upstate (Millipore catalog #33-047) and has been configured for HTS and SAR screening. Briefly, this procedure exploits the exquisite specificity and high affinity binding of enzyme reaction substrate phosphatidyl(3,4,5)triphosphate (PIP3) to the GRP1 pleckstrin homology (PH) domain to generate the signal. In the absence of PIP3, an HTRF (Homogeneous Time-Resolved Fluorescence energy transfer) complex is formed consisting of europium (Eu)-labeled anti-GST, GST tagged GRP1-PH domain, biotin-PIP3 and streptavidin conjugated APC. The native PIP3 produced by PI3-Kinase activity disrupts in a competitive manner the biotin-PIP3 from the PH domain, resulting in the loss of energy transfer (HTRF complex) and a decrease in the signal. The format of this assay is the same for all 4 isoforms of PI3K; the differences lie in the concentration of enzyme used to achieve robust assay window. The alpha, beta, and delta assays are run at 0.5, 1, and 0.3 nM enzymes and the gamma assay is run at 5 nM enzyme. The ATP concentration is 100 uM in the alpha, beta, and delta assays and 50 uM ATP in the gamma assay. All reactions are run at 5 uM PIP2.
Compounds are serially diluted (3-fold in 100% DMSO) across a 384-well polypropylene source plated from column 3 to column 12 and column 13 to column 22, to yield 10 concentration dose response for each test compound. Columns 1, 2, 23 and 24 contain either only DMSO or pharmacological known control inhibitor.
The PI3-Kinase biochemical assay was optimized using the HTRF kit provided by Upstate (Millipore). The assay kit contains six reagents: 1) 4× Reaction Buffer; 2) native PIP2 (substrate); 3) Stop (EDTA); 4) Detection Mix A (Streptavidin-APC); 5) Detection Mix B (Eu-labeled Anti-GST plus GST-tagged PH-domain); 6) Detection Mix C.
PI3Kinase Reaction Buffer is prepared by dilution the stock 1:4 with de-ionized water. […] Enzyme addition and compound pre-incubation are initiated by the addition of 1.25 ul of PI3K (at twice its final concentration) in the 1× reaction buffer to all wells using a BioRaptor. Plates are incubated at room temperature for 15 minutes. Reactions are initiated by addition of 1.25 ul of 2× substrate solution (PIP2 and ATP in 1× reaction buffer) using BioRaptor. Plates are incubated in humidified chamber at room temperature for one hour. Reactions are quenched by addition of 0.625 uL of stop solution to all wells using the BioRaptor. The quenched reactions are then processed to detect product formation by adding 0.625 uL of Detection Solution to all wells using the BioRaptor (Detection mix C, Detection Mix A, and Detection Mix B combined together in an 18:1:1 ratio prepared 2 hours prior to use).
The loss of the HTRF signal is due to the displacement of biotinylated-PIP3 from the PH domain by the PI3K-dependent conversion of PIP2 to PIP3. This loss of signal is nonlinear with respect to both increasing product and time. This non-linear detection will impact accuracy of IC50 calculations; therefore, there is a need for a correction factor to obtain more accurate IC50 values. This correction is derived from a PIP3 standard curve run in a separate assay plate. All data were calculated using the ratio of acceptor (APC) to donor (Europium) fluorescence in each well of the assay plate. […] An IC50 was then calculated fitting the % inhibition data to the equation: % inhibition=min+(Max−min)/1+([inhibitor]/IC50)^n) where min is the % inhibition […], max is the signal in DMSO control, and n is the Hill slope.

PI3K-alpha, sequence (P42336 whole entry, looked up, canonical isoform): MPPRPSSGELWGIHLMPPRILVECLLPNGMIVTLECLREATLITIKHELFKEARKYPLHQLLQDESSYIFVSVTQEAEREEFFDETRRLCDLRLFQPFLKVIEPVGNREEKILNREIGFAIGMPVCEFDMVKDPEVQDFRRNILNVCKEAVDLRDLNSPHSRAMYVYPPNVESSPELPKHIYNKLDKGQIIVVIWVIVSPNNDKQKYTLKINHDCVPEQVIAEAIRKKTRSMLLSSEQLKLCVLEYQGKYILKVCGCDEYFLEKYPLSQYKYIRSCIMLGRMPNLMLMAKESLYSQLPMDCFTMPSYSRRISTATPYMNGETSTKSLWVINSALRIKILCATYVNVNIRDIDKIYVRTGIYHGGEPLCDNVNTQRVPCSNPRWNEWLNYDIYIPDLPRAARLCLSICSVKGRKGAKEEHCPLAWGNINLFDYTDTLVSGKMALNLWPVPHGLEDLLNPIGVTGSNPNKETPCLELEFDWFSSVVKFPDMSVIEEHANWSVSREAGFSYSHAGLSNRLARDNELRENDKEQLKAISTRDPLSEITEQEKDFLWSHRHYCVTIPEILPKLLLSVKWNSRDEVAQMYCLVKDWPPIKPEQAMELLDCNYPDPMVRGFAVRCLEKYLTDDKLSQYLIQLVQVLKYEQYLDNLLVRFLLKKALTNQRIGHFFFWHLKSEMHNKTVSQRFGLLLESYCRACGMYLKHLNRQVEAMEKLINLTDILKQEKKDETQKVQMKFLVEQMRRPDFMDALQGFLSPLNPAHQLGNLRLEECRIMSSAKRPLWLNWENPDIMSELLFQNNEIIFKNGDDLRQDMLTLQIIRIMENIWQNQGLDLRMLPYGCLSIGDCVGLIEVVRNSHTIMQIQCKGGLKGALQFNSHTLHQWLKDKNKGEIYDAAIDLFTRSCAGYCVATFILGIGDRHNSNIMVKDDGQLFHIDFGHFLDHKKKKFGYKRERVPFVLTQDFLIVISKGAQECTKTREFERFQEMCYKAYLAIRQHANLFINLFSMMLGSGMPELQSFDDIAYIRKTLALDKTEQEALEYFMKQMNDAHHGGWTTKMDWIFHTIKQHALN
PI3K-alpha, sequence (P27986 whole entry partner, looked up, canonical isoform): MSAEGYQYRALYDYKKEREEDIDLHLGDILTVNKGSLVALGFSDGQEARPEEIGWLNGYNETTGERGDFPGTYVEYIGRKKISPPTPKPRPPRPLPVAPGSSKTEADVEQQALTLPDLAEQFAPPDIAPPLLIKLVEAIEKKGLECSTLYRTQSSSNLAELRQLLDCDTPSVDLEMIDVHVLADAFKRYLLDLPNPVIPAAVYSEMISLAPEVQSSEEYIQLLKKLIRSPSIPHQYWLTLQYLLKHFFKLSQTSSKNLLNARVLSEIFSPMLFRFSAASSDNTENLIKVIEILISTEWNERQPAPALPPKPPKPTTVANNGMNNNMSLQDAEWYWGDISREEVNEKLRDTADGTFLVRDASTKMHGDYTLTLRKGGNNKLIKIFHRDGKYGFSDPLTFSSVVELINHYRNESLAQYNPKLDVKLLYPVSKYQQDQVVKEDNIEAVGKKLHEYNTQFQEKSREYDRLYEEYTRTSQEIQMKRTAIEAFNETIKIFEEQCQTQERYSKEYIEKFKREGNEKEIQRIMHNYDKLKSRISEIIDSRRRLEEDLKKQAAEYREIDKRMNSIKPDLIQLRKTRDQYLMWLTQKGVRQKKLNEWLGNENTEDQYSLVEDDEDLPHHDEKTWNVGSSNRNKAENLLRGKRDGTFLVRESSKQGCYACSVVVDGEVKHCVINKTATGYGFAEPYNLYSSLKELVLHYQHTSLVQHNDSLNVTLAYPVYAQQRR

Row | Compound | Relative Selectivity versus PI3Kalpha
1 | Cn1c(-c2ccc(-n3ccnc3)cc2)nc2c(O[C@H]3CCN(C(=O)OC(C)(C)C)C3)ncnc21 [Compound 1-25, tert-butyl (3S)-3-({8-[4-(1H-imidazol-1-yl)phenyl]-9-methyl-9H-purin-6-yl}oxy)pyrrolidine-1-carboxylate] | >10
2 | Cc1n[nH]cc1-c1nc2c(O[C@H]3CCN(C(=O)OC(C)(C)C)C3)ncnc2n1C [Compound 1-26, tert-butyl (3S)-3-{[9-methyl-8-(3-methyl-1H-pyrazol-4-yl)-9H-purin-6-yl]oxy}pyrrolidine-1-carboxylate] | >10
3 | Cn1c(-c2ccc(N3CCCC3)nc2)nc2c(O[C@H]3CCN(C(=O)OC(C)(C)C)C3)ncnc21 [Compound 1-27, tert-butyl (3S)-3-{[9-methyl-8-(6-pyrrolidin-1-ylpyridin-3-yl)-9H-purin-6-yl]oxy}pyrrolidine-1-carboxylate] | >10
4 | Cn1c(-c2cncc3ccccc23)nc2c(O[C@H]3CCN(C(=O)OC(C)(C)C)C3)ncnc21 [Compound 1-28, tert-butyl (3S)-3-[(8-isoquinolin-4-yl-9-methyl-9H-purin-6-yl)oxy]pyrrolidine-1-carboxylate] | >10
5 | Cn1c(-c2ccc3[nH]ncc3c2)nc2c(O[C@H]3CCN(C(=O)OC(C)(C)C)C3)ncnc21 [Compound 1-29, tert-butyl (3S)-3-{[8-(1H-indazol-5-yl)-9-methyl-9H-purin-6-yl]oxy}pyrrolidine-1-carboxylate] | >10
6 | CCn1ncc(-c2nc3c(OC4CC(C)N(C(=O)OC(C)(C)C)C4)ncnc3n2C)c1C (stereo not drawn) [Compound 1-30, tert-butyl 4-((8-(1-ethyl-5-methyl-1H-pyrazol-4-yl)-9-methyl-9H-purin-6-yl)oxy)-2-methylpyrrolidine-1-carboxylate] | 3
7 | COC1CC(c2nc3c(OC4CCN(C(=O)OC(C)(C)C)C4)ncnc3n2C)C1 [Compound 1-31, (S)-tert-butyl 3-((8-(3-methoxycyclobutyl)-9-methyl-9H-purin-6-yl)oxy)pyrrolidine-1-carboxylate] | >5
8 | Cn1cnc2c(O[C@H]3CCN(C(=O)OC(C)(C)C)C3)ncnc21 [Compound 1-32, (S)-tert-butyl 3-((9-methyl-9H-purin-6-yl)oxy)pyrrolidine-1-carboxylate] | >7
9 | Cc1n[nH]c2ncc(-c3nc4c(O[C@H]5CCN(C(=O)OC(C)(C)C)C5)ncnc4n3C)cc12 [Compound 1-33, (S)-tert-butyl 3-((9-methyl-8-(3-methyl-1H-pyrazolo[3,4-b]pyridin-5-yl)-9H-purin-6-yl)oxy}pyrrolidine-1-carboxylate] | >10
10 | CCn1c(-c2cnc(OC)c(C)c2)nc2c(O[C@H]3CCN(C(=O)OC(C)(C)C)C3)ncnc21 [Compound 1-34, tert-butyl (3S)-3-{[9-ethyl-8-(6-methoxy-5-methylpyridin-3-yl)-9H-purin-6-yl]oxy}pyrrolidine-1-carboxylate] | >10
11 | CCn1c(-c2cnc(C(C)(C)C)s2)nc2c(O[C@H]3CCN(C(=O)OC(C)(C)C)C3)ncnc21 [Compound 1-35, tert-butyl (3S)-3-{[8-(2-tert-butyl-1,3-thiazol-5-yl)-9-ethyl-9H-purin-6-yl]oxy}pyrrolidine-1-carboxylate] | >10
12 | CCn1ncc(-c2nc3c(O[C@H]4CCN(C(=O)OC)C4)ncnc3n2C)c1C [Compound 1-36, methyl (3S)-3-{[8-(1-ethyl-5-methyl-1H-pyrazol-4-yl)-9-methyl-9H-purin-6-yl]oxy}pyrrolidine-1-carboxylate] | >10
13 | CCOC(=O)N1CC[C@H](Oc2ncnc3c2nc(-c2cnn(CC)c2C)n3C)C1 [Compound 1-37, ethyl (3S)-3-{[8-(1-ethyl-5-methyl-1H-pyrazol-4-yl)-9-methyl-9H-purin-6-yl]oxy}pyrrolidine-1-carboxylate] | >10
14 | CCn1ncc(-c2nc3c(O[C@H]4CCN(C(=O)OC(C)C)C4)ncnc3n2C)c1C [Compound 1-38, 1-methylethyl (3S)-3-{[8-(1-ethyl-5-methyl-1H-pyrazol-4-yl)-9-methyl-9H-purin-6-yl]oxy}pyrrolidine-1-carboxylate] | >10
15 | Cn1c(-c2cnc(C(C)(C)C)s2)nc2c(O[C@H]3CCN(C(=O)OC(C)(C)C)C3)ncnc21 [Compound 1-39, tert-butyl (3S)-3-{[8-(2-tert-butyl-1,3-thiazol-5-yl)-9-methyl-9H-purin-6-yl]oxy}pyrrolidine-1-carboxylate] | >10
16 | CCn1ncc(-c2nc3c(OC4CN(C(=O)OC(C)(C)C)C4)ncnc3n2C)c1C [Compound 1-40, tert-butyl 3-((8-(1-ethyl-5-methyl-1H-pyrazol-4-yl)-9-methyl-9H-purin-6-yl)oxy)azetidine-1-carboxylate] | >10
17 | CCn1ncc(-c2nc3c(O[C@H]4CCCN(C(=O)OC(C)(C)C)C4)ncnc3n2C)c1C [Compound 1-41, (S)-tert-butyl 3-((8-(1-ethyl-5-methyl-1H-pyrazol-4-yl)-9-methyl-9H-purin-6-yl)oxy)piperidine-1-carboxylate] | >10
18 | CCn1ncc(-c2nc3c(O[C@@H]4CCCN(C(=O)OC(C)(C)C)C4)ncnc3n2C)c1C [Compound 1-42, (R)-tert-butyl 3-((8-(1-ethyl-5-methyl-1H-pyrazol-4-yl)-9-methyl-9H-purin-6-yl)oxy)piperidine-1-carboxylate] | >2
19 | CCOC(=O)N1CC[C@H](Oc2ncnc3c2nc(-c2cnc(C)nc2)n3CC)C1 [Compound 1-43, (S)-ethyl 3-{[9-ethyl-8-(2-methylpyrimidin-5-yl)-9H-purin-6-yl]oxy}pyrrolidine-1-carboxylate] | >10
20 | CCn1c(-c2cnc(C)nc2)nc2c(OC3CN(C(=O)OC(C)(C)C)CC3F)ncnc21 [Compound 1-44, [(3S,4S) and (3R,4R)]-tert-butyl 3-{[9-ethyl-8-(2-methylpyrimidin-5-yl)-9H-purin-6-yl]oxy}-4-fluoropyrrolidine-1-carboxylate] | >10
21 | CCC1CN(C(=O)OCc2ccccc2)CC1Oc1ncnc2c1nc(-c1cnc(C)nc1)n2CC [Compound 1-45, [(3S,4R) and (3R,4S)]-benzyl 3-ethyl-4-{[9-ethyl-8-(2-methylpyrimidin-5-yl)-9H-purin-6-yl]oxy}pyrrolidine-1-carboxylate] | >10
22 | CCn1c(-c2cnc(C)nc2)nc2c(OC3CN(C(=O)OC(C)(C)C)CC3O)ncnc21 [Compound 1-46, [(3S,4S) and (3R,4R)]-tert-butyl 3-{[9-ethyl-8-(2-methylpyrimidin-5-yl)-9H-purin-6-yl]oxy}-4-hydroxypyrrolidine-1-carboxylate] | >10
23 | CCn1c(-c2cnc(C)nc2)nc2c(OC3CN(C(=O)OC(C)(C)C)CC3(F)F)ncnc21 (stereo not drawn) [Compound 1-47, (4S and 4R)-tert-butyl 4-{[9-ethyl-8-(2-methylpyrimidin-5-yl)-9H-purin-6-yl]oxy}-3,3-difluoropyrrolidine-1-carboxylate] | >10
24 | CCn1c(-c2cnc(C)nc2)nc2c(O[C@H]3CCN(C(=O)OC(C)(C)C)[C@@H]3C)ncnc21 [Compound 1-48, tert-butyl (2R,3S)-3-{[9-ethyl-8-(2-methylpyrimidin-5-yl)-9H-purin-6-yl]oxy}-2-methylpyrrolidine-1-carboxylate] | >10

— patent US9730940B2, “Purine inhibitors of human phosphatidylinositol 3-kinase delta” (priority 2012, dated 2017)
